Legend:
rat muscle cell lines = assay: Fatty acid oxidation in muscle cell lines; assay type: cell-based
VLCAD = VLCAD enzymatic activity in cultured fibroblasts from FAOD patients with VLCAD deficiency; assay type: cell-based, human; conditions: fibroblasts from symptomatic VLCAD deficient patients
[1] = test system: healthy male volunteers, leg immobilization; assay: Phase 1 placebo-controlled study in healthy volunteers with single limb immobilization; assay type: in vivo, human; conditions: 100 mg twice daily for 28 days
Protocol: In a prior clinical trial in healthy volunteers, Compound I was administered at dose of 100 mg twice daily for 28 days in healthy volunteers during and after a single limb immobilization (see NCT01524406). The study was conducted to evaluate the impact of Compound I on the recovery of muscle atrophy from leg immobilization, and improvements in cross section area (CSA) and muscle strength parameters expected in patients treated with study drug compared to those given placebo.
This phase 1, randomized, parallel group, placebo-controlled study was conducted at 2 centers in the United States. Fifty participants were planned for enrollment, 25 per group; participants could be replaced upon sponsor approval.
Screening was conducted 28 days before study start; eligibility was reviewed again at prespecified times during the study. Ambulatory, non-smoking, healthy male volunteers 30 to 55 years of age with a Body Mass Index (BMI) from 18 to 30 kg/m2 were recruited for the study. Key exclusion criteria included abnormal laboratory values at screening, a recent history of body weight fluctuations, positive urine drug screens, drug dependency or illicit drug use, professional sport participation within 30 days of screening, donation of whole blood within 90 days of dosing, and donation of plasma within 30 days of dosing. Concomitant medications within 14 days of dosing were not allowed unless approved by the sponsor. Those who had enrolled in another clinical trial within 90 days or had previously received Compound II were not allowed to participate.
Participants were randomly assigned 1:1 to receive either Compound II (100 mg BID) or matching placebo for 28 days using a computer generated randomization schedule provided by the sponsor. The principal investigator, study center staff, and participants were blinded to treatment; the protocol was amended so that sponsor personnel were not blinded. This change was made to allow investigation of observations concerning adherence to the protocol, discussed further in the pharmacodynamic results. Compound II and placebo were provided as capsules identical in appearance, taken orally with 240 ml of water prior to meals. Study drug was administered at the study site on Days 1 (PM dose), 6 (AM dose), 13 (PM dose), and 14, 15, 16, 29 (AM doses). At all other times study drug was self-administered just before breakfast and dinner. Dates and times were recorded in a diary, with compliance determined from the diaries and capsule counts. Study drug supplies were packaged according to the randomization codes by a contract research organization. Each dispensed bottle was labeled with the randomization number. Individual capsules were re-dispensed from these bottles by the study site staff, maintaining the blind. The total study duration for each subject was 42 days. Participants stayed overnight from Day 1 and Days 13 to 16.
Standardized meals, beverages and snacks were provided during the domicile periods. On Day 1, participants were leg-immobilized using a knee brace with […] on the left leg to allow driving. Walking crutches were provided to prevent weight bearing on the immobilized leg. An accelerometer was issued at screening and was used to count the number of steps per day. Participants were to walk 4000 to 6000 steps each day for the duration of the leg immobilization period, and recorded accelerometer readings each evening before bedtime. The brace was removed on Day 14, and participants resumed normal physical activity gradually from Days 16 to 29. After stopping study drug on Day 29, participants were to resume regular daily activity gradually for another 2 weeks. Consumption of prescribed medications or over the counter products was prohibited from 14 days prior to dosing and throughout the study, with the exception of the treatment of an adverse event. Participants were not to consume alcohol or caffeine containing food and beverages 3 days before each study visit and domicile periods. […]

SMILES: Cc1cc(OC/C=C(/c2ccc(F)cc2)c2ccc(C#CCN3CCOCC3)cc2)ccc1OCC(=O)O [Compound I, (E)-2-(4-((3-(4-fluorophenyl)-3-(4-(3-morpholinoprop-1-yn-1-yl)phenyl)allyl)oxy)-2-methylphenoxy)acetic acid]
- fatty acid oxidation (rat muscle cell lines): dose-dependent increase
- VLCAD enzymatic activity (VLCAD): increased
- expression of PPAR regulated target genes (ANGPTL4) and fatty acid metabolism genes (PDK4) in muscle biopsies [1]: significant increases
- mean knee extension strength from baseline vs placebo ([1]; Day 21): significant increase

Source: US11931365B2, “Use of PPAR-delta agonists in the treatment of disease” (Reneo Pharmaceuticals, Inc., priority 2022, dated 2024)
